Source: paper PMC7689916, “A Fluorescence Resonance Energy Transfer-Based Analytical Tool for Nitrate Quantification in Living Cells” (ACS Omega, 2020)
Where a chain is given by its changes, count along the chain named. pKd: −log10 of the molar value.

Assays:
Assay in all cases: FRET ratio (YFP/CFP, […] nm) titration of purified sensor
Type in all cases: binding
[1] = molecular target: T1, NrtA (FLIP-NT; CFP_NrtA_YFP) (Synechocystis sp. PCC 6803, UniProt P73452, Q155I)
T1 construct: FRET sensor: His6-CFP-NrtA-YFP; NrtA without signal peptide (first 36 residues), stop and penultimate codon removed (1227 bp, 409 residues); E. coli BL21-CodonPlus(DE3), Ni-NTA
T1 sequence (P73452 37-445 Q155I): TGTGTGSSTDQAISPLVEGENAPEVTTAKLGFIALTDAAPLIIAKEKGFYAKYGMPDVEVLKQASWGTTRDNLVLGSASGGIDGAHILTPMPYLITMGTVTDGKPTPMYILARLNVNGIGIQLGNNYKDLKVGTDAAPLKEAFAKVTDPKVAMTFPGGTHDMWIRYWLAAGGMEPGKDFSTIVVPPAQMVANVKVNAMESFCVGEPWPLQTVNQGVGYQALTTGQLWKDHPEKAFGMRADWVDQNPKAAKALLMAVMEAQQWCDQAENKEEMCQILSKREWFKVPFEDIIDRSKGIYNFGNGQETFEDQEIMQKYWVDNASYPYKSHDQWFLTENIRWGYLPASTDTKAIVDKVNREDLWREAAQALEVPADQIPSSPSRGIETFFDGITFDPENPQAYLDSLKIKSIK

[2] = molecular target: T2, NrtA (FLIP-NT; CFP_NrtA_YFP) (Synechocystis sp. PCC 6803, UniProt P73452)
T2 construct: FRET sensor: His6-CFP-NrtA-YFP; NrtA without signal peptide (first 36 residues), stop and penultimate codon removed (1227 bp, 409 residues); E. coli BL21-CodonPlus(DE3), Ni-NTA
T2 sequence (P73452 37-445): T1 sequence (P73452 37-445 Q155I) with I119Q

[3] = molecular target: T3, NrtA (FLIP-NT; CFP_NrtA_YFP) (Synechocystis sp. PCC 6803, UniProt P73452, W102A)
T3 construct: FRET sensor: His6-CFP-NrtA-YFP; NrtA without signal peptide (first 36 residues), stop and penultimate codon removed (1227 bp, 409 residues); E. coli BL21-CodonPlus(DE3), Ni-NTA
T3 sequence (P73452 37-445 W102A): T1 sequence (P73452 37-445 Q155I) with W66A, I119Q

[4] = molecular target: T4, NrtA (FLIP-NT; CFP_NrtA_YFP) (Synechocystis sp. PCC 6803, UniProt P73452, G240Q)
T4 construct: FRET sensor: His6-CFP-NrtA-YFP; NrtA without signal peptide (first 36 residues), stop and penultimate codon removed (1227 bp, 409 residues); E. coli BL21-CodonPlus(DE3), Ni-NTA
T4 sequence (P73452 37-445 G240Q): T1 sequence (P73452 37-445 Q155I) with I119Q, G204Q

**Q.** With `O=[N+]([O-])O` [nitrate] as the compound, how does the pKd [1] read?
**A.** Its pKd is 6.00.

**Q.** And the pKd [2]?
**A.** The pKd was 5.30.

**Q.** And the pKd [3]?
**A.** Its pKd is 4.25.

**Q.** And the pKd [4]?
**A.** The pKd was 4.49.
